Paper PMC9862096, “Interaction of a Homologous Series of Amphiphiles with P-glycoprotein in a Membrane Environment—Contributions of Polar and Non-Polar Interactions” (Pharmaceutics, 2023)

Tests used:
[1] = Partition coefficient to membrane proteins from Equations (1) and (2), all membrane proteins with equal affinity; format: physicochemical, High-Five insect cells; conditions: binding to all membrane proteins with equal affinity
Description: (§1) From the partition coefficient obtained for the native membranes, KPW→M , and that for the model lipid bilayers, KPW→Lb , one can calculate the partition coefficient between the aqueous phase and the proteins in the membrane, KPW→P , and from the lipid bilayer to the proteins, KPLb→P , Equations (1) and (2), [40]. (1) KPW→M VM=KPW→PVP+KPW→Lb VLb (2) KPLb→P=KPW→P/KPW→Lb
(§2) In Equation (1) it is necessary to include the volume occupied by the proteins, and the values obtained will, therefore, depend on whether it is considered that the amphiphile may interact with all proteins in the membrane or with P–gp only.

[2] = cited from earlier work
[3] = Association (partition) of the NBD amphiphiles with native membranes, NBD fluorescence; format: physicochemical, High-Five insect cells; conditions: for KPW→M: aqueous phase to native membrane
Method: (§3) The membranes were diluted to the chosen concentration with simplified ATPase assay buffer and warmed to 37 °C. The NBD amphiphiles were added from stocks in DMSO (final DMSO 1% v/v) by squirting the required volume into the membrane solution under gentle vortex. Fluorescence intensity was measured after 15 to 30 min incubation at 37 °C using a Cary Eclipse spectrofluorimeter (Varian, Singapore). The path length of the sample container was selected to guarantee that scattering at the excitation wavelength was smaller than 0.1 while maintaining a good signal/noise ratio (3, 5, or 10 mm).
(§4) The increase in fluorescence of the NBD amphiphiles when associated with the model membranes was well described by a simple partition (Equation (S3)). The low affinity of the less lipophilic amphiphiles for the native membranes required the use of high membrane concentrations, and the fluorescence was measured with the plate reader SpectraMax iD5 (Molecular Devices, Berkshire, UK), where the reading setup is not very sensitive to scatter. To guarantee that the high scatter intensity was not leading to artifacts in the measured fluorescence intensity of NBD–C4, titrations of NBD-C6 and NBD–C8 were also performed in the same plate. For these two latter amphiphiles, the results obtained for the partition coefficient were similar to those obtained for experiments with low scatter intensity. A small decrease in the fluorescence intensity from NBD–C8 was nevertheless observed at very high scatter intensities (OD ≥ 0.5), which was used to correct the signal from the less lipophilic amphiphiles, see Supplementary Information (Figure S5 and Equation (S4)). The molar volume considered for the lipid was 0.8 dm^3/mol, and 1.2 g/mL was considered for the density of the membrane proteins.
S3 – Partition of the NBD amphiphiles to lipid bilayers and native membranes The fluorescence increase that accompanies the association of the NBD amphiphiles with the model membra nes was well defined by a simple partition, equation S3. […]
where IfW and If M are respec ti vel y the fluorescence intensity when all fluorescent amphiphile is in the aqueous phase and ass oci ated with the membranes, LbK is the partition co eff icient P between the aqueous and the lipid bilayer, V is the molar vo l u m e of the lipid when in the lipid L bi l ayer, and [L] is the lipid concentration.
To characterize the association of the NBD amphiphiles with the native membranes the whole membrane vo lume was considere d, including the lipid bilayer and the membrane proteins. For the ca se of the less lipophilic amphiphiles NBD‐C4 and NBD‐C6, a sig nif ica nt scatter from the […]
both to the larger size of the vesicles (ca 1 µm diameter, [1]) and to the high refractive index of the native membranes. The magnitude of the scatter effect was quantified through the best fit […]
partition to the membranes at co n ce ntrations where scatter is not significant. The modified […]
where s is the scatter correction factor for a given concentration of native membranes, If W and IfM are respectively the fluorescence intensity when all fluorescent amphiphile is in the aqueous phase and associated with the membranes, WMK → is the partition coefficient between the P aqueous phase and the native membrane, V is the molar volume of the lipid when in the L membrane and [L] the molar concentration of the membrane lipids, V is the vo lume occupied P by 1 g of membrane protein (assuming a density of 1.2 g/mL) and [P] is the protein concentration in units of ma ss per volume.
Typical results obtained for the variation of the fluorescence intensity at 540 nm of the NBD‐Cn fluorophores equilibrated with increasing concentrations of native membranes, are shown in figure S3. The fluorescence intensity was measured in black 96 well plates with the plate reader […]
SpectraMax iD5. The NBD‐Cn concentrations we re 0.5 µM for NBD‐C8 , 1 µM for NBD‐C6, and 2 µM for NBD‐C4, and the total volume per well was 150 µL. […]

P–gp = test: Partition coefficient to membrane protein from Equations (1) and (2), binding to P–gp only; format: physicochemical, mouse; conditions: binding to the protein P–gp only
Description: as §1, §2

[4] = Association (partition) with model membranes (LUVs POPE:POPC:POPS 45:35:20); format: physicochemical; conditions: aqueous phase to model lipid bilayer
Method: The model membranes with a phospholipid composition representative of that of the native membranes (POPE:POPC:POPS 45:35 20) were prepared from stock solutions of the required lipids in chloroform or in chloroform/methanol (87/13, v/v), as described before. The solvent-free lipid residue was hydrated at 40 °C with previously heated simplified ATPase assay buffer (with all components except Ouabain and DTT). Large Unilamelar Vesicles were prepared by extrusion through two-staked polycarbonate filters (100 nm pore diameter), and the size of the LUVs was analyzed by dynamic light scattering (Zetasizer Nano ZS, Malvern, UK) being close to the filter pore size.
as §3, §4
S3 – Partition of the NBD amphiphiles to lipid bilayers and native membranes
The fluorescence increase that accompanies the association of the NBD amphiphiles with the
model membra nes was well defined by a simple partition, equation S3.
If 1540 nm Lb= + S3, KVL[]
where IfW and If M are respec ti vel y the fluorescence intensity when all fluorescent amphiphile is
in the aqueous phase and ass oci ated with the membranes, LbK is the partition co eff icient P
between the aqueous and the lipid bilayer, V is the molar vo l u m e of the lipid when in the lipid L
bi l ayer, and [L] is the lipid concentration. […]

[5] = e.g. 1 M trehalose; cited from earlier work
mP–gp [6] = molecular target: T1, mP–gp (Mus musculus, UniProt P21447); test: Photolabeling of P–gp with [125I]-IAAP / IAAP displacement; format: binding; conditions: concentration of 2 μM, positive control
T1 construct: made in house; host or cells: High-Five insect cells (Invitrogen), recombinant baculovirus; total membrane vesicles
Method: The native membranes of High-Five insect cells expressing mP–gp (1.0 mg/mL) were incubated at room temperature with the indicated concentrations of the inhibitor for 5 min. IAAP (5 to 7 nM) was later added, and the reaction mixture was further incubated for 5 min under subdued light. The samples were photocross-linked with 366 nm UV light for 10 min at room temperature, followed by electrophoresis and quantification, as described previously. The raw data are shown in the Supplementary Information (Figure S4). The results were first analyzed with the usual equation, considering the total concentration of IAAP and NBD amphiphile, as well as competitive inhibition of IAAP binding, see Supplementary Information (Equation (S2)). The dissociation constant considered for IAAP was taken from the literature, 412 nM [15]. The results were also analyzed with a formalism derived in this manuscript considering the distribution of the NBD amphiphile in the distinct environments (aqueous phase, lipid bilayer, and P–gp), the distribution of IAAP between the aqueous media and P–gp, and several equal and independent binding sites in P–gp’s binding pocket, Equation (10).
In this assay, in addition to the binding of the NBD amphiphiles to P–gp binding pocket, it is also necessary to consider the binding of IAAP. The concentration of IAAP used in the assay (5 nM) is several orders of magnitude smaller than that of the amphiphiles in study, and it is also smaller than the total concentration of P–gp (59 nM). Therefore, Equation (8) may be used to calculate the concentration of free ligand and protein. The fraction of IAAP bound to P–gp may then be calculated from Equation (10), where P^* is the concentration of P–gp available for IAAP binding. (10) IP/IT=−b−b^2−4ac/2aa=1; b=−1+KdIAAP/IT+P^*/IT; c=P^*/IT
The number of binding sites in P–gp binding pocket was varied from 1 to 5, and three situations were considered in the analysis: (i) full inhibition of IAAP binding when at least one NBD amphiphile is in the P–gp binding pocket ( i≥1 ), corresponding to P^*=P; (ii) inhibition of IAAP binding only when P–gp is fully saturated ( i=n ), corresponding to P^*=P+∑i=1n−1PLi; and (iii) an intermediate situation with IAAP displacement for i≥n−1 , corresponding to P^*=P+∑i=1n−2PLi .
The displacement of IAAP from P–gp binding pocket was calculated from Equation (11), where IP0 is the concentration of IAAP bound to P–gp in the absence of the NBD amphiphiles. (11) IAAP displacement %=100IP0−IP/IP0

mP–gp [7] = molecular target: T1, mP–gp; set-up: method as in PMID 28283574; conditions: positive control; read-out: KI, inhibition of IAAP binding; cited from earlier work

T1 sequence (P21447 whole entry): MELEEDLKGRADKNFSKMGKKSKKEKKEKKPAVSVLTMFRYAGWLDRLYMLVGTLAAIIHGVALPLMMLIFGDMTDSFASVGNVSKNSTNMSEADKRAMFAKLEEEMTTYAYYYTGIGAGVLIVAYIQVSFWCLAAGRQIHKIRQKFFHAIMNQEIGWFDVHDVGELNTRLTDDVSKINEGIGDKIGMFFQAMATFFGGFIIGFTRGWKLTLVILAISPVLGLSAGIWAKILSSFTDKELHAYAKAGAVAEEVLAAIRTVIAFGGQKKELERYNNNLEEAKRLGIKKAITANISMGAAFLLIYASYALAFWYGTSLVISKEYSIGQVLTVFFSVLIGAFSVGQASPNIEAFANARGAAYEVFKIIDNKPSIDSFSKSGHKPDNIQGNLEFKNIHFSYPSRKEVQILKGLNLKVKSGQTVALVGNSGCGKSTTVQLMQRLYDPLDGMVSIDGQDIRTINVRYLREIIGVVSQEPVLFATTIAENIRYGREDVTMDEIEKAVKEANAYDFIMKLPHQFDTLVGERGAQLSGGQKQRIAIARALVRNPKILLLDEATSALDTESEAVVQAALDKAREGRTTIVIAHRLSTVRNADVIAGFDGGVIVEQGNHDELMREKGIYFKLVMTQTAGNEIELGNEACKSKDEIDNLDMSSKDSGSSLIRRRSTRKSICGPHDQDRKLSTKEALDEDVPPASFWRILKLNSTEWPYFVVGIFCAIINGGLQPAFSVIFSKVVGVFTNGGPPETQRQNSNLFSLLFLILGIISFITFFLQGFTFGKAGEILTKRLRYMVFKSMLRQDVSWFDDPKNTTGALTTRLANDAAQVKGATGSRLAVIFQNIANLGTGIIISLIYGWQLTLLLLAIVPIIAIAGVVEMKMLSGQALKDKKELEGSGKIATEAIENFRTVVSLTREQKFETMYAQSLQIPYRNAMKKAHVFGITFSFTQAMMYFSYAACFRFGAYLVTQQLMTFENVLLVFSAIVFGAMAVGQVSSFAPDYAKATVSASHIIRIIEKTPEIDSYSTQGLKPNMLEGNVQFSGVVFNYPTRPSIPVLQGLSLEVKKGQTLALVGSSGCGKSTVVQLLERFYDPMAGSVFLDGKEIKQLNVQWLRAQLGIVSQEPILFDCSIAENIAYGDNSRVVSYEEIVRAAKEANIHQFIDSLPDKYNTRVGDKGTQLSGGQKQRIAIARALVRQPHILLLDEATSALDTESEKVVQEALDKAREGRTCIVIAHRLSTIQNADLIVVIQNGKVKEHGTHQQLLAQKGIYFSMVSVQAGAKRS

For `CCCCCCNc1ccc([N+](=O)[O-])c2nonc12` [NBD-C6], the KPW→P ([1]; aqueous phase to proteins) is given as 1.0 × 10^3, the KPLb→P ([1]; lipid bilayer to proteins) is given as 0.43 and the “LogKP, association with POPC bilayers” value [2] is given as 3.79. For the same compound, the “LogKP, association with the native membranes” value ([3]; 37 °C, simplified ATPase assay buffer) was 3.20 ± 0.26, the KPW→M ([3]; membrane volume = phospholipid bilayer and P–gp (binding to the protein P–gp only)) was 3.9 × 10^3 and the KPW→M ([3]; membrane volume = phospholipid bilayer and all proteins (binding to all membrane proteins with equal affinity)) was 1.6 × 10^3. For the same compound, the KPW→P (P–gp; aqueous phase to protein) was 1.0 × 10^5, the KPLb→P (P–gp; lipid bilayer to protein) was 43 and the KPW→Lb ([4]; section: binding to all membrane proteins with equal affinity) was 2.4 × 10^3. The KPW→Lb ([4]; section: binding to the protein P–gp only) was 2.4 × 10^3.

In the case of `CCCCCCCCCCNc1ccc([N+](=O)[O-])c2nonc12` [NBD-C10], the “increase of CAC in the presence of co-solvent” value [5] is listed as 6 fold.

For `COc1cc2c(cc1OC)CN(CCc1ccc(NC(=O)c3cc(OC)c(OC)cc3NC(=O)c3cnc4ccccc4c3)cc1)CC2` [Tariquidar, reference compound], the “Inhibition of IAAP binding” value (mP–gp [6]) is given as “efficient inhibition of IAAP binding” and the Ki (mP–gp [7]) is given as 0.2 µM.
